“Also recorded” adds a separate entry of the source.
How the values were obtained:
OCI-AML3 cells = assay: Induction of apoptosis by cleaved caspase-3 cytometry, combination with IAP antagonist; type: cell-based, human; settings: 0.1 μM, 72 h
Experimental: Cleaved caspase-3 staining was recorded in the FL1 (green) channel, with unstained and DMSO control wells being used to set the gated stained and unstained cell populations—allowing the percentage of cells that are apoptotic to be calculated.

[1] = system: acute myeloid leukemia blasts isolated from patients; assay: Primary AML blasts sensitivity, 24 h apoptosis assay (Annexin V/PI); type: cell-based, human; settings: 13 primary AML samples, two concentrations
Experimental: Low SKP2 expression is a biomarker for sensitivity of AML to MDM2 antagnists in patient-derived samples.
Evaluation of Primary AML Blasts Sensitivity to Compound 1
Primary frozen AML samples were purchased from NBS Biobank (Moscow, Russia). 13 primary AML samples with high blast content (>80%) were cultured in selected expansion media composed by StemSpan SFEM II media (Stemcell, #09605), 1× StemSpan CD34+ expansion supplement (Stemcell, #02691), 2% FBS and 1% Penicillin/Streptomycin.
Evaluation of SKP2 Protein Expression on Primary AML Blasts
Capillary Western analyses were performed using the ProteinSimple Wes System (San Jose, CA, USA). Antibodies used were specific for SKP2 (#4358) and TXN1 (#2429) as loading control. Samples were diluted with 0.1× Sample Buffer. Then 4 parts of diluted sample were combined with 1 part 5× Fluorescent Master Mix (containing 5× sample buffer, 5× fluorescent standard, and 200 mM DTT) and heated at 95° C. for 5 min. After this denaturation step, the prepared samples, blocking reagent, primary antibodies (1:10 dilution for SKP2, 1:100 for TXN1), HRP-conjugated secondary antibodies and chemiluminescent substrate were dispensed into designated wells in an assay plate. A biotinylated ladder provided molecular weight standards for each assay. […]

OCI-AML3 AML cell line = assay: Apoptosis after SKP2 knockdown in a non-apoptotic AML cell line; type: cell-based, human
Experimental: shRNA Lentiviral Transduction:
MISSION® shRNA Lentiviral Transduction Particles (Sigma Aldrich, Pool, UK) were used to knockdown SKP2 in the OCI-AML3 AML cell line. Stable gene knockdown was established by cellular resistance to puromycin (1 μg/ml) and was confirmed at the protein level by western blot.
(§1) Apoptosis Assay by Cytometry
(§2) The cell lines were plated out in 6-well plates at 0.5×10^6 cells/ml (2 ml/well) the day before treatment and allowed to recover overnight in a humidified 5% CO2/air incubator at 37° C. […] Briefly, the cells were resuspended with the Annexin V-binding buffer and stained with Annexin V-conjugate. Samples were incubated for 20 min at room temperature in the dark. After washing with the Annexin V-binding buffer, the cells were analyzed with a flow cytometer.
(§3) For caspase 3/7 staining CellEvent™ Caspase 3/7 Green reagent (Life Technologies), a fluorogenic substrate for activated caspase-3 and -7 was used according to the manufacturer's protocol. The cells were incubated with 5 μM of substrate for 30 min at room temperature and then analyzed with a flow cytometer.

[2] = system: MV4-11 tumour cells in the bone marrow; assay: In vivo systemic AML mouse model, bone marrow flow cytometry; set-up: species or system NSG mice; settings: 14 days after treatment
Experimental: Thus, overexpression of SKP2 is able to turn a sensitive AML cell line into a resistant cell line in vivo, providing evidence that low SKP2 is an important biomarker for sensitivity to MDM2 antagonism.
(§4) In Vivo Systemic AML Mouse Model
(§5) Female NSG Mice (6-8 weeks old) were bought from Jackson Laboratories (Bar Harbor, ME). Animals were given an intravenous injection of 5×10^6 MV4-11 cells and tumour engraftment was assessed by PCR for circulating human DNA. Mice were randomized to treatment groups based on systemic tumour burden as detected by PCR. Leukemic burden was then monitored weekly by serial bleeding followed by PCR. Mice were observed daily and euthanized humanely upon signs of terminal illness (hind limb paralysis, inability to eat/drink, moribund lethargy).
Bone Marrow Flow Cytometry
Bone marrow cells were stained with PE-CF594 Anti-Human CD45 (BD 562312), BB515 Anti-Mouse CD45 (BD 564590) and DAPI. The amount of human cells engrafted in the bone marrow is expressed as % of viable mouse CD45+ cells.

AML cell lines = assay: Activated caspase-3 by cytometry in AML cell lines; type: cell-based, human
Experimental: Levels of Compound 1-induced apoptosis were measured as percentage of cells with activated caspase-3. […] The extent of Compound 1-induced apoptosis is not predicted from the IC50 values obtained from the Alamar Blue proliferation assays, thus emphasising the impact of grouping cell lines specifically based on their apoptotic potential for subsequent analyses described in the following section.
Activated Caspase-3 by Cytometry
The cell lines were plated out in 6-well plates at 0.5×10^6 cells/ml (2 ml/well) the day before treatment and allowed to recover overnight in a humidified 5% CO2/air incubator at 37° C. […] 200 μl of each sample was added to duplicate wells of a 96-well plate. To one of the two wells, 50 μl of serum-free medium was added as an unstained control. […] The plate was incubated in the dark for 30 minutes before measuring fluorescent stained cells in a Guava EasyCyte HT cytometer (Merck Millipore, Kenilworth, NJ, USA). Activated caspase-3 staining was recorded in the GRN-B (green) channel, with unstained and DMSO control wells being used to set the gated stained and unstained cell populations—allowing the percentage of cells that are apoptotic to be calculated.

MV4-11 cells [3] = assay: In vivo systemic AML mouse model, PCR for circulating human DNA; settings: MV4-11 empty vector (absence of SKP2 overexpression); NSG mice
Experimental: In addition to assessing the effect of SKP2 overexpression and knockdown in vitro, the impact of SKP2 on cancer proliferation was evaluated in vivo, using a disseminated AML model based on the MV4-11 cell line. To generate a systemic in vivo model of AML, NSG mice were injected in the tail vein with MV4-11 cells engineered to overexpress SKP2 or empty vector. Systemic tumour burden was assessed by PCR for circulating human DNA.
as §4, §5
PCR for Circulating Human DNA
Blood samples were collected in heparinized capillary tubes and samples were stored at −80° C. until analysis. DNA was extracted using the DNeasy Blood & Tissue Kit (Qiagen, Cat: 69504) and PCR for human DNA was run using TaqMan™ Genotyping Master Mix (ThermoFisherScientific Catalog number: 4371355) using the following primers: […]

MV4-11 cells [4] = assay: Alamar Blue proliferation assay, MV4-11 overexpressing SKP2 vs control; type: cell-based, human; settings: MV4-11 SKP2 OE compared to control
Experimental: (§6) Precision LentiORF Transduction:
(§7) Precision LentiORF Lentiviral Transduction Particles (Cat. OHS5900-224629438, Dharmacon, UK) were used to overexpress SKP2 in the MV4-11 AML cell line. Stable gene overexpression was established by cellular resistance to blasticidin (5 μg/ml) and was confirmed at the protein level by western blot. The Precision LentiORF control empty vector (Dharmacon, UK) served as a negative control.
The number of viable cells was determined by Alamar Blue assay (Bio-Rad, Irvine, CA, USA). All cell lines were grown and assayed in RPMI-1640+10% FBS medium.
Compounds were diluted first in DMSO and then into serum-free medium, before addition to triplicate wells of the cultured cells to give a 0.1% DMSO final concentration. […] Twenty μl of Alamar Blue™ (AbD Serotec/Bio-Rad) was added to each well and plates were then incubated for 4-6 h at 37° C. in an atmosphere of 5% CO2 and air. Plates were then read at 535 nm (excitation) and 590 nm (emission) on a SpectraMax Gemini reader (Molecular Devices, San Jose, CA, USA).

MV4-11 cells [5] = assay: Apoptosis assay by cytometry, MV4-11 overexpressing SKP2; type: cell-based, human; settings: MV4-11 SKP2 OE, 48-hour treatment with 2 different concentrations
Experimental: as §6, §7, §1, §2, §3

SJSA-1 = assay: Protocol B: SJSA-1 CellTiter-Glo Luminescent Cell Viability Assay; settings: Homo sapiens, SJSA-1, read-out: SJSA1 IC50 (μM) (Protocol B)

Compound | level of apoptosis (cleaved caspase-3), single agent (OCI-AML3 cells) | level of apoptosis (cleaved caspase-3), single agent (OCI-AML3 cells; listed as Compund 1) | sensitivity of SKP2 low blasts compared with SKP2 high blasts [1] | effect of SKP2 knockdown on cytotoxicity (OCI-AML3 AML cell line; non-apoptotic AML cell line) | increase of apoptosis on SKP2 knockdown compared to control (no SKP2 knockdown) (OCI-AML3 AML cell line; non-apoptotic AML cell line (high basal SKP2), 0.1 μM) | bone marrow tumour burden (FACS) ([2]; SKP2 overexpressed) | leukemic tumour cells in the bone marrow (FACS) ([2]; absence of SKP2 overexpression) | apoptosis (cells with activated caspase-3) (AML cell lines; HNT-34, OCI-AML3, ML-2, GDM-1 (non-apoptotic), 48-hour treatment with 100 nM) [%] | cells staining positive for activated caspase-3 (AML cell lines; MV4-11, EOL-1, Molm-13, OCI-AML-2 and BDCM (apoptotic), 48-hour treatment with 100 nM) [%] | increase in activated caspase-3 (AML cell lines; panel of 12 AML cell lines, negative control KG-1, TP53 mutant) | systemic tumour burden (circulating human DNA) (MV4-11 cells [3]) | effect of SKP2 overexpression on cytotoxicity / sensitivity (MV4-11 cells [4]) | effect of SKP2 overexpression on apoptosis / cell death (MV4-11 cells [5]) | IC50 (SJSA-1) [µM]
CC[C@@](O)(c1cc(F)c2c(c1)C(=O)N([C@H](c1ccc(Cl)cc1)[C@H](C)C(=O)O)[C@@]2(OC)c1ccc(Cl)cc1)C1CCOCC1 [Compound 1, (2S,3S)-3-(4-chlorophenyl)-3-[(1R)-1-(4-chlorophenyl)-7-fluoro-5-[(1S)-1-hydroxy-1-(oxan-4-yl)propyl]-1-methoxy-3-oxo-2,3-dihydro-1H-isoindol-2-yl]-2-methylpropanoic acid] | did not induce a high level of apoptosis | does not induce substantial levels of cell death by apoptosis | more sensitive | increases Compound 1-induced cytotoxicity | about 30% | does not reduce the number of leukemic cells; also recorded: no effects | reduces the number of leukemia cells; also recorded: significant decrease | < 30 | > 30 | observed in all cell lines except the negative control | only low levels of circulating human DNA | reduces Compound 1-induced cytotoxicity; also recorded: resistant | reduces Compound 1-dependent cell death; also recorded: strong reduction in apoptosis | –
[2H]C([2H])(O)C1(C([2H])([2H])O[C@]2(c3ccc(Cl)cc3)c3c(F)cc(C(O)(CC)c4cn(C)cn4)cc3C(=O)N2Cc2ccc(C#N)cn2)CC1 (some centres unmarked) [Example 440] | – | – | – | – | – | – | – | – | – | – | – | – | – | 1.9

From US20230313313A1, “BIOMARKERS FOR CANCER THERAPY USING MDM2 ANTAGONISTS” (OTSUKA PHARMACEUTICAL CO., LTD., priority 2020, published 2023)
